Assay results taken from US20220409531A1, “PHARMACEUTICAL DELIVERY DEVICE AND METHOD OF MANUFACTURE” (University of Ulster, priority 2019, published 2022).
Where a name gives a salt, the structure may show the parent alone.

Experiment: in vitro pharmaceutical release in simulated gastric fluid and simulated intestinal fluid
Format: physicochemical
Conditions: for cumulative release: from the capsule, simulated gastric fluid (pH=1.7) / simulated intestinal fluid (pH=7.4), time not stated; for release kinetics model fit: release from the fibres, in vitro
Source text: FIGS. 7A and 7B illustrate the use of a pharmaceutical delivery device in accordance with an embodiment of the present invention to release two pharmaceuticals at the same time, each with their own unique release profile, in which FIG. 7A is a pharmaceutical release profile of APAP and CM from the various capsule configurations in a simulated gastric fluid (pH=1.7) and a simulated intestinal fluid (pH=7.4), and FIG. 7B is a detailed pharmaceutical release profile for APAP and CM from the composite capsule in the first two hours in a simulated gastric fluid (pH=1.7); and
The capsule sample was immersed into a 100 ml beaker containing 50 mL PBS solution being stirred at 100 rpm. The whole separation process was finished in 169 s and the complete dissolution of PVP finished until 295 s. Also, regulation and controlled movement of each component pharmaceutical layer after separation was achieved by adding Fe3O4 nanoparticles and an external magnetic field. The separated capsule containing the printed outer PCL with embedded Fe3O4 nanoparticles and travel quickly from left to right under an applied external magnet field while the inner layer without any nanoparticles remained stationary (FIG. 5). This travel distance was covered within 3 s at a velocity of 6.7 mm/s. […] This allows for multifunctional uses of the capsule such as for targeted pharmaceutical release using an externally located magnet, and as a magnetic resonance tracer. […] The cumulative release of APAP was more than 90% while the cumulative release of CM was around 70%.

release rate comparison (first 2 hours in simulated gastric fluid (pH=1.7), composite capsule) | cumulative release | release kinetics model fit | Structure (SMILES)
faster than CM | more than 90% | mostly fit the Higuchi model | CC(=O)Nc1ccc(O)cc1 [APAP, paracetamol]
 | around 70% | mostly fit the Higuchi model | CN(C)CCC(c1ccc(Cl)cc1)c1ccccn1 (centres unmarked) [CM, chlorpheniramine maleate]
